Measured values as given in patent publication US20240368173A1, “TRICYCLIC GPR65 MODULATORS” (PATHIOS THERAPEUTICS LIMITED, priority 2021, published 2024).

Biological target: human recombinant GPR65 (Homo sapiens, UniProt Q8IYL9)
Test: Human GPR65 cAMP HTRF antagonist assay
Assay type: cell-based
Conditions: not given
Summary of the method: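 1321N1 astrocytoma cells stably expressing hrGPR65, with IBMX and EDTA, were preincubated with compound 30 min at room temperature, then acid-activated at assay pH 7.2 (control pH 7.9) for 30 min. cAMP read by HTRF (665/620 nm ratio); IC50 from 4-parameter fit normalised to high/low controls.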

human recombinant GPR65, sequence (Q8IYL9 whole entry): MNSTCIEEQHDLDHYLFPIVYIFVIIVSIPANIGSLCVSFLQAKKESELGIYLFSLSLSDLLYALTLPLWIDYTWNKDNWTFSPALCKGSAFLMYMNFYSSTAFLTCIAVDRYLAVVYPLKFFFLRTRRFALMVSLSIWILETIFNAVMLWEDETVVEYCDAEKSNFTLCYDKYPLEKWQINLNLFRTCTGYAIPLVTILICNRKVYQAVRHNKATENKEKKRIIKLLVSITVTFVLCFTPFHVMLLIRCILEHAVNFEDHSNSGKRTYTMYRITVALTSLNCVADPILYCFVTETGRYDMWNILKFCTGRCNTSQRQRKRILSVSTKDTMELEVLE

SMILES | IC50 [nM]
COc1cncc(-c2cc(F)c(NC(=O)N3[C@H]4CC[C@@H]3c3c[nH]c(=O)cc3C4)cc2Cl)c1 [Compound 249, (6S,9R)-N-(5-Chloro-2-fluoro-4-(5-methoxypyridin-3-yl)phenyl)-3-oxo-3,5,6,7,8,9-hexahydro-2H-6,9-epiminocyclohepta[c]pyridine-10-carboxamide] | < 500
O=C(Nc1cc(Cl)c(Cl)cc1F)N1[C@H]2CC[C@@H]1c1c(Cl)cnc(F)c1C2 [Compound 100, (5R,8S)-4-Chloro-N-(4,5-dichloro-2-fluorophenyl)-1-fluoro-6,7,8,9-tetrahydro-5H-5,8-epiminocyclohepta[c]pyridine-10-carboxamide] | < 500
O=C(Nc1ccc(OC2CCC2)c(Cl)c1)N1[C@H]2CC[C@@H]1c1ccnc(F)c1C2 [Compound 69, (5R,8S)-N-(3-Chloro-4-cyclobutoxyphenyl)-1-fluoro-6,7,8,9-tetrahydro-5H-5,8-epiminocyclohepta[c]pyridine-10-carboxamide] | < 500
O=C(Nc1cc(Cl)c(-c2ccc3nonc3c2)cc1F)N1C2CCC1C(F)(F)c1c2ccnc1F (racemic) [Compound 289, (±)-N-(4-(Benzo[c][1,2,5]oxadiazol-5-yl)-5-chloro-2-fluorophenyl)-1,9,9-trifluoro-6,7,8,9-tetrahydro-5H-5,8-epiminocyclohepta[c]pyridine-10-carboxamide] | < 500
O=C(Nc1cc(Cl)c(-c2cnc(F)nc2)cc1F)N1[C@H]2CC[C@@H]1c1n[nH]c(=O)cc1C2 [Compound 178, (6S,9R)-N-(5-Chloro-2-fluoro-4-(2-fluoropyrimidin-5-yl)phenyl)-3-oxo-3,5,6,7,8,9-hexahydro-2H-6,9-epiminocyclohepta[c]pyridazine-10-carboxamide] | < 500
O=C(Nc1cc(F)c(-c2ccc(C(F)(F)F)nc2)cc1F)N1[C@H]2CC[C@@H]1c1ccnc(F)c1C2 [Compound 223, (5R,8S)-N-(2,5-Difluoro-4-(6-(trifluoromethyl)pyridin-3-yl)phenyl)-1-fluoro-6,7,8,9-tetrahydro-5H-5,8-epiminocyclohepta[c]pyridine-10-carboxamide] | < 500
O=C(Nc1ccc(Cl)c(Br)c1)N1[C@H]2CC[C@@H]1c1n[nH]c(=O)cc1C2 [Compound 49, (6S,9R)-N-(3-Bromo-4-chlorophenyl)-3-oxo-3,5,6,7,8,9-hexahydro-2H-6,9-epiminocyclohepta[c]pyridazine-10-carboxamide] | < 500
O=C(Nc1cc(Cl)c(-c2ccncc2)cc1F)N1[C@H]2CC[C@@H]1c1n[nH]c(=O)cc1C2 [Compound 173, (6S,9R)-N-(5-Chloro-2-fluoro-4-(pyridin-4-yl)phenyl)-3-oxo-3,5,6,7,8,9-hexahydro-2H-6,9-epiminocyclohepta[c]pyridazine-10-carboxamide] | < 500
O=C(Nc1cc(Cl)c(Br)cc1F)N1C2CCC1c1n[nH]c(=O)cc1C2 (racemic) [Compound 8, (±)-N-(4-Bromo-5-chloro-2-fluorophenyl)-3-oxo-3,5,6,7,8,9-hexahydro-2H-6,9-epiminocyclohepta[c]pyridazine-10-carboxamide] | < 500
O=C(Nc1cc(Cl)c(C(F)(F)F)cc1F)N1[C@H]2CC[C@@H]1c1ccnnc1C2 [Compound 85, (5R,8S)-N-(5-Chloro-2-fluoro-4-(trifluoromethyl)phenyl)-6,7,8,9-tetrahydro-5H-5,8-epiminocyclohepta[c]pyridazine-10-carboxamide] | < 500
O=C(Nc1cc(Cl)c(Br)cc1F)N1C2CCC1c1c[nH]c(=O)nc1C2 (racemic) [Compound 16, (±)-N-(4-bromo-5-chloro-2-fluorophenyl)-2-oxo-3,5,6,7,8,9-hexahydro-2H-5,8-epiminocyclohepta[d]pyrimidine-10-carboxamide] | < 500
O=C(Nc1cc(Cl)c(-c2cccnc2)cc1F)N1[C@H]2CC[C@@H]1c1n[nH]c(=O)cc1C2 [Compound 136, (6S,9R)-N-(5-Chloro-2-fluoro-4-(pyridin-3-yl)phenyl)-3-oxo-3,5,6,7,8,9-hexahydro-2H-6,9-epiminocyclohepta[c]pyridazine-10-carboxamide] | < 500
O=C(Nc1cc(Cl)c(-c2ccc(OCC(F)(F)F)nc2)cc1F)N1[C@H]2CC[C@@H]1c1c[nH]c(=O)cc1C2 [Compound 241, (6S,9R)-N-(5-Chloro-2-fluoro-4-(6-(2,2,2-trifluoroethoxy)pyridin-3-yl)phenyl)-3-oxo-3,5,6,7,8,9-hexahydro-2H-6,9-epiminocyclohepta[c]pyridine-10-carboxamide] | < 500
CO[C@H]1C[C@@H](Oc2ccc(-c3cc(F)c(NC(=O)N4[C@H]5CC[C@@H]4c4n[nH]c(=O)cc4C5)cc3Cl)cn2)C1 [Compound 304, (6S,9R)-N-(5-Chloro-2-fluoro-4-(6-((1s,3S)-3-methoxycyclobutoxy)pyridin-3-yl)phenyl)-3-oxo-3,5,6,7,8,9-hexahydro-2H-6,9-epiminocyclohepta[c]pyridazine-10-carboxamide] | < 500
N#Cc1cc(F)c(NC(=O)N2[C@H]3CC[C@@H]2c2n[nH]c(=O)cc2C3)cc1Cl [Compound 111, (6S,9R)-N-(5-Chloro-4-cyano-2-fluorophenyl)-3-oxo-3,5,6,7,8,9-hexahydro-2H-6,9-epiminocyclohepta[c]pyridazine-10-carboxamide] | < 500
O=C(Nc1cc(Cl)c(-c2ccc(F)nc2)cc1F)N1[C@H]2CC[C@@H]1c1c[nH]c(=O)cc1C2 [Compound 172, (6S,9R)-N-(5-Chloro-2-fluoro-4-(6-fluoropyridin-3-yl)phenyl)-3-oxo-3,5,6,7,8,9-hexahydro-2H-6,9-epiminocyclohepta[c]pyridine-10-carboxamide] | < 500
O=C(Nc1cc(Cl)c(-c2ccc3nonc3n2)cc1F)N1[C@H]2CC[C@@H]1c1n[nH]c(=O)cc1C2 [Compound 314, (6S,9R)-N-(4-([1,2,5]Oxadiazolo[3,4-b]pyridin-5-yl)-5-chloro-2-fluorophenyl)-3-oxo-3,5,6,7,8,9-hexahydro-2H-6,9-epiminocyclohepta[c]pyridazine-10-carboxamide] | < 500
O=C(Nc1cc(Br)c(C(F)(F)F)cc1F)N1[C@H]2CC[C@@H]1c1n[nH]c(=O)cc1C2 [Compound 35, (6S,9R)-N-(5-Bromo-2-fluoro-4-(trifluoromethyl)phenyl)-3-oxo-3,5,6,7,8,9-hexahydro-2H-6,9-epiminocyclohepta[c]pyridazine-10-carboxamide] | < 500

Same assay, conditions: 1321N1-hrGPR65 cells, cAMP HTRF, assay pH 7.2; read-out: hGPR65 IC50 (Activity of selected compounds according to the invention)

SMILES | IC50 [nM]
N#Cc1cnccc1-c1cc(F)c(NC(=O)N2[C@H]3CC[C@@H]2c2n[nH]c(=O)cc2C3)cc1Cl [Compound 179, (6S,9R)-N-(5-Chloro-4-(3-cyanopyridin-4-yl)-2-fluorophenyl)-3-oxo-3,5,6,7,8,9-hexahydro-2H-6,9-epiminocyclohepta[c]pyridazine-10-carboxamide] | 500 to 5000
O=C(Nc1cc(Cl)c(-c2cncc(CO)c2)cc1F)N1[C@H]2CC[C@@H]1c1n[nH]c(=O)cc1C2 [Compound 128, (6S,9R)—N-(5-Chloro-2-fluoro-4-(5-(hydroxymethyl)pyridin-3-yl)phenyl)-3-oxo-3,5,6,7,8,9-hexahydro-2H-6,9-epiminocyclohepta[c]pyridazine-10-carboxamide] | 500 to 5000
O=C1NCc2cc(-c3cc(F)c(NC(=O)N4[C@H]5CC[C@@H]4c4n[nH]c(=O)cc4C5)cc3Cl)ccc21 [Compound 142, (6S,9R)-N-(5-Chloro-2-fluoro-4-(1-oxoisoindolin-5-yl)phenyl)-3-oxo-3,5,6,7,8,9-hexahydro-2H-6,9-epiminocyclohepta[c]pyridazine-10-carboxamide] | > 5000
